11 molecules from patent publication US20120225909A1, “INDAZOLE ANALOG” (priority 2009, published 2012) can be followed below.

Test [1] deals with T1, human β3-adrenergic receptor (Homo sapiens, UniProt P13945).
T1 construct: A full-length human β3 gene is obtained from a human genomic library (made by Clontech) using this as the probe; expressed in transfected cells; host or cells: CHO (Chinese hamster ovary) cells, pcDNA3
The test is described as follows: Test Case 1-B: human β3-adrenergic receptor agonist activity (cAMP-Screen, 96-well). The class given is cell-based. The method, then: Measurement of Human β3-Adrenergic Receptor Agonist Activity
The human β3-adrenergic receptor agonist activity is measured using CHO (Chinese hamster ovary) cells transfected by a human β3 gene inserted in pcDNA3 (Invitrogen). […] A full-length human β3 gene is obtained from a human genomic library (made by Clontech) using this as the probe. These cells are cultured in Ham's F-12 medium containing 10% fetal calf serum and 400 μg/mL genectin (Invitrogen). These cells are sown in 96-well plates to make 2×10^4 cells/well. After culturing for approximately 20 hours, they are allowed to stand for 15 minutes in 80 μL of serum-free Ham's F-12 medium. After first dissolving the test compound by DMSO, it is serially diluted by Ham's F-12 containing 100 mmol/L HEPES and 1 mmol/L isobutylmethylxanthine, and 20 μL is added to the cells. After culturing for 30 minutes, the medium is removed, and 0.1 mL of the assay/lysis buffer contained in the cAMP-Screen kit (made by Applied Bioscience) is added and incubated for 30 minutes at 37° C. The cAMP in this cell lysate is assayed by the above cAMP-Screen kit.

In test [2] the target is T2, human α1A-adrenergic receptor (Homo sapiens, UniProt P35348).
T2 sequence (P35348 1-466): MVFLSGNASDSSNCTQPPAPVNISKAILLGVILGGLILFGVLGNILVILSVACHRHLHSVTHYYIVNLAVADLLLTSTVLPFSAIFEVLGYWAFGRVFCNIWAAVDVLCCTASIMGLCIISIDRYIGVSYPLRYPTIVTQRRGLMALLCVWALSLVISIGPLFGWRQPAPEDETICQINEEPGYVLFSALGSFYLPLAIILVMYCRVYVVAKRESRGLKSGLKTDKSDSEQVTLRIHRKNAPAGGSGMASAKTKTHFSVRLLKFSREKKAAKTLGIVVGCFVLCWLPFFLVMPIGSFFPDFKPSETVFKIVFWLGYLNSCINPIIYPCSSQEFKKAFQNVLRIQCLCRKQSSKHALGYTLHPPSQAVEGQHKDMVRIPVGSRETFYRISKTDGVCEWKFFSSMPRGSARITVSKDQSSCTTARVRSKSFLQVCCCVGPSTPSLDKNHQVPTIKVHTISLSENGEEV
As to the kind of experiment: Test Case 4-A: human α1A-adrenergic receptor agonist activity (HEK293, Ca flux, Fura-2). The class given is cell-based. Further details: expressed in transfected cells; host or cells: HEK293 cells, pcDNA3.1. The method, then:
Measurement of Human α1A-Adrenergic Receptor Agonist Activity
The human α1A-adrenergic receptor agonist activity is measured using HEK293 cells transfected by a human α1A gene inserted in pcDNA3.1 (Invitrogen). […] After loading for 30 minutes in a CO2 incubator, the excess Fura-2AM is removed by washing twice with assay buffer. After preparing the centrifuged cells to make 5×10^6 cells/mL by assay buffer, 80 μL/well is dispensed into 96-well UV plates (made by Corning) to make cell plates. Sample plates with the test compound diluted 10-fold by assay buffer from 10^−5 to 10^−12 M and cell plates are set in an FDSS4000 (made by Hamamatsu Photonics). After preincubating for 180 seconds, measurement of fluorescence intensity (excitation wavelength 340 nm, 380 nm, measurement wavelength 500 nm) is begun at 2-second intervals. After approximately 30 seconds of measurement, 20 μL of test sample from a sample plate is added to the cell plate, and measurement is continued for another 270 seconds. The Ca flux caused by the test compound is calculated taking the difference in the maximum value of the fluorescence intensity ratio at 340 nm and 380 nm after adding the test compound and the fluorescence intensity ratio before adding the test compound as the peak height.

The mark [3] stands for this setting: Test Case 1-B; maximum response of isoproterenol = 100%.
[4] abbreviates: Test Case 4-A; maximum response of norepinephrine = 100%; Table 4.
Where [5] appears, read: 0.5 h; read-out: β3 receptor I.A.
Where [6] appears, read: HEK293; read-out: α1A receptor I.A.

Read-outs that look alike come from different tables or passages of the source.

T1 sequence (P13945 whole entry): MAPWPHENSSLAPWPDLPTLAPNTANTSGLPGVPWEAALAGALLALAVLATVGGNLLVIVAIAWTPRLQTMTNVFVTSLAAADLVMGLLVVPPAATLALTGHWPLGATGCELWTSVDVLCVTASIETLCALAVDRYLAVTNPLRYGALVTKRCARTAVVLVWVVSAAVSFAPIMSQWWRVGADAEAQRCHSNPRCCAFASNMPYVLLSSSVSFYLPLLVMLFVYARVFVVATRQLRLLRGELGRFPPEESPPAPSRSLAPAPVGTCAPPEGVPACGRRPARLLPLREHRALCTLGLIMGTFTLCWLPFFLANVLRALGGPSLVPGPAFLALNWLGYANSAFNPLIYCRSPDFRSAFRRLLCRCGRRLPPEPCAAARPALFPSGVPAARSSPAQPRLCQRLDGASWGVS

Take “(R)-N-(3-(1-hydroxy- 2-(2-(3-iso- propylindazol-6-yloxy) ethylamino)ethyl) phenyl)cyclopro- panesulfonamide [ex228]”: in test [1] (Test Case 1-B; CHO cells, cAMP), the EC50 (as a rule, the concentration at which the effect is half-maximal) was found to be 14 nM. Also, in test [1] (setting [3]), the “β3 receptor I.A.” value was found to be 47%. For the same molecule, the “α1A receptor I.A.” value in test [2] (setting [4]) worked out at 0%.

`CCc1n[nH]c2cc(OCCNC[C@H](O)c3cccc(NS(=O)(=O)c4cccnc4)c3)ccc12` [ex121, (R)-N-(3-(2-(2-(3-ethylindazol-6-yloxy)ethylamino)-1-hydroxyethyl)phenyl) pyridine-3-sulfonamide]: the Emax worked out at 53% in test [1] (setting [5]) and 0% in test [2] (setting [6]). For the same molecule, a half-maximal response in test [1] (Test Case 1-B; CHO cells, cAMP) (EC50) required 2.8 nM.

On to `Cc1n[nH]c2cc(OCCNC[C@H](O)c3cccc(NS(=O)(=O)c4ccc(N)cc4)c3)ccc12` [ex54, (R)-4-amino-N-(3-(1-hydroxy-2-(2-(3-methylindazol-6-yloxy)ethylamino)ethyl)phenyl) benzenesulfonamide], for which the Emax in test [1] (setting [5]) came to 48%; in test [2] (setting [6]), 0%. Moreover, the EC50 in test [1] (Test Case 1-B; CHO cells, cAMP) is 125 nM.

For the molecule `Cc1n[nH]c2cc(OCCNC[C@H](O)c3cccc(NS(=O)(=O)C4CCCC4)c3)ccc12` [ex237, (R)—N-(3-(1-hydroxy-2-(2-(3-methylindazol-6-yloxy)ethylamino)ethyl)phenyl)cyclopentanesulfonamide], the Emax in test [1] (0.5 h, read-out: β3 receptor I.A.) came to 58%; in test [2] (HEK293, read-out: α1A receptor I.A.) it was 0%. In test [1] (Test Case 1-B; CHO cells, cAMP), a half-maximal response (EC50) required 293 nM.

As for `CCc1n[nH]c2cc(OCCNC[C@H](O)c3cccc(NS(=O)(=O)c4cccc(OC)c4)c3)ccc12` [ex120, (R)-N-(3-(2-(2-(3-ethylindazol-6-yloxy)ethylamino)-1-hydroxyethyl)phenyl)-3-methoxybenzene-sulfonamide], the figures for the Emax in test [1] (setting [5]) and in test [2] (setting [6]) were 32% and 0%, respectively. For the same molecule, in test [1] (Test Case 1-B; CHO cells, cAMP), the EC50 is 131 nM.

For the molecule `O=S(=O)(Nc1cccc([C@@H](O)CNCCOc2ccc3c(OC(F)F)n[nH]c3c2)c1)C1CCC1` [ex115, (R)-N-(3-(2-(2-(3-(difluoromethoxy)-indazol-6-yloxy)ethylamino)-1-hydroxyethyl)phenyl)-cyclobutanesul-fonamide], the figures for the Emax in test [1] (setting [5]) and in test [2] (setting [6]) were 86% and 35%, respectively. For the same molecule, the EC50 in test [1] (Test Case 1-B; CHO cells, cAMP) is 15 nM; in test [2] (Test Case 4-A; HEK293 cells, Ca flux; Table 4), 1100 nM.

Turning to `Cc1n[nH]c2cc(OCCNC[C@H](O)c3cccc(NS(=O)(=O)c4ccccc4Cl)c3)ccc12` [ex51, (R)-2-chloro-N-(3-(1-hydroxy-2-(2-(3-methylindazol-6-yloxy)ethylamino)ethyl)phenyl)ben-zenesulfonamide], the Emax in test [1] (setting [5]) stood at 64%; in test [2] (setting [6]), 0%. Further, the response in test [1] (Test Case 1-B; CHO cells, cAMP) was half-maximal at 146 nM (EC50).

With `O=S(=O)(Nc1cccc([C@@H](O)CNCCOc2ccc3c(OC(F)F)n[nH]c3c2)c1)c1ccccn1` [ex117, (R)-N-(3-(2-(2-(3-(difluoromethoxy)-indazol-6-yloxy)ethylamino)-1-hydroxyethyl)phenyl)pyridine-2-sulfonamide], in test [1] (setting [3]), the “β3 receptor I.A.” value was 54%. Also, the “α1A receptor I.A.” value in test [2] (setting [4]) was found to be 0%.

Turning to `Cc1n[nH]c2cc(OCCNC[C@H](O)c3cccc(NS(=O)(=O)CC(F)(F)F)c3)ccc12` [ex48, (R)-2,2,2-trifluoro-N-(3-(1-hydroxy-2-(2-(3-methylindazol-6-yloxy)ethylamino)ethyl)phenyl) ? sulfonamide], the Emax in test [1] (setting [5]) was found to be 48%; in test [2] (setting [6]), 29%. For the same molecule, in test [1] (Test Case 1-B; CHO cells, cAMP), the EC50 was 27 nM.

Turning to `Cc1n[nH]c2cc(OCCNC[C@H](O)c3cccc(NS(=O)(=O)c4ccc(Cl)cc4)c3)ccc12` [ex52, (R)-4-chloro-N-(3-(1-hydroxy-2-(2-(3-methylindazol-6-yloxy)ethylamino)ethyl)phenyl) benzenesulfonamide], the Emax in test [1] (setting [5]) stood at 62%; in test [2] (setting [6]) it was 0%. The molecule also gave an EC50 in test [1] (Test Case 1-B; CHO cells, cAMP) of 248 nM.

On to `O=S(=O)(Nc1cccc([C@@H](O)CNCCOc2ccc3c(C(F)(F)F)n[nH]c3c2)c1)c1ccccc1F` [ex189, (R)-2-fluoro-N-(3-(1-hydroxy-2-(2-(3-(trifluoromethyl)-indazol-6-yloxy)ethylamino)ethyl)phenyl)benzene-sulfonamide], for which the Emax in test [1] (setting [5]) came out at 91%; in test [2] (setting [6]), 1%. This molecule gave an EC50 in test [1] (Test Case 1-B; CHO cells, cAMP) of 85 nM.
